Measurements taken from ChEMBL document CHEMBL1140860, “Synthesis and evaluation of dihydroartemisinin and dihydroartemisitene acetal dimers showing anticancer and antiprotozoal activity” (Bioorg Med Chem, 2009).

What was measured:
Plasmodium falciparum [1] = experiment: Antimalarial activity after 72 hrs against chloroquine-sensitive Plasmodium falciparum D6 infected in erythrocytes by LDH assay; assay type: functional, organism-based; details: D6, 72 h
[2] = Selectivity index, ratio of TC50 for african green monkey (Cercopithecus aethiops) Vero cells to IC50 for chloroquine-sensitive Plasmodium falciparum D6; assay type: toxicity, cell-based
Plasmodium falciparum [3] = experiment: Antimalarial activity after 72 hrs against chloroquine-resistant Plasmodium falciparum W2 infected erythrocytes by LDH assay; assay type: functional, organism-based; details: W2, 72 h
[4] = Selectivity index, ratio of TC50 for african green monkey (Cercopithecus aethiops) Vero cells to IC50 for chloroquine-resistant Plasmodium falciparum W2; assay type: toxicity, cell-based
[5] = Cytotoxicity against african green monkey Vero cells after 48 hrs by neutral red assay; assay type: cell-based; details: chlorocebus sabaeus, read-out: TC50
Leishmania donovani = experiment: Antileishmanial activity against Leishmania donovani promastigotes after 48 hrs by alamar-blue assay; assay type: functional, organism-based

SMILES	IC50 (Plasmodium falciparum [1])	selectivity ratio [2]	IC50 (Plasmodium falciparum [3])	selectivity ratio [4]	CC50 at 48 h [5]	IC50 (Leishmania donovani)	IC90 (Leishmania donovani)
C[C@H]1[C@H](O[C@H]2O[C@@H]3O[C@@]4(C)CC[C@H]5[C@H](C)CC[C@@H]([C@H]2C)[C@@]35OO4)O[C@@H]2O[C@@]3(C)CC[C@H]4[C@H](C)CC[C@@H]1[C@@]24OO3	23.6 µM	> 37	25.4 µM	> 34	> 864 µM	–	–
C[C@H]1[C@@H](O[C@H]2O[C@@H]3O[C@@]4(C)CC[C@H]5[C@H](C)CC[C@@H]([C@H]2C)[C@@]35OO4)O[C@@H]2O[C@@]3(C)CC[C@H]4[C@H](C)CC[C@@H]1[C@@]24OO3	11.8 µM	> 73	6.9 µM	> 125	> 864 µM	–	–
C[C@@H]1[C@H](O)[C@@H](C)/C=C/C=C/C=C/C=C/C=C/C=C/C=C/[C@H](O[C@@H]2O[C@H](C)[C@@H](O)[C@H](N)[C@@H]2O)C[C@@H]2O[C@](O)(C[C@@H](O)C[C@@H](O)[C@H](O)CC[C@@H](O)C[C@@H](O)CC(=O)O[C@H]1C)C[C@H](O)[C@H]2C(=O)O [AMPHOTERICIN B]	–	–	–	–	–	0.1 µM	0.2 µM
C[C@@H]1CC[C@H]2[C@@H](C)C(=O)O[C@@H]3O[C@@]4(C)CC[C@@H]1[C@]32OO4 [ARTEMISININ]	–	> 170	–	> 106	> 1690 µM	–	–
N=C(N)c1ccc(OCCCCCOc2ccc(C(=N)N)cc2)cc1 [PENTAMIDINE]	–	–	–	–	–	3.5 µM	14.7 µM
